The OPERA property sets (Mansouri et al. 2018)

Row | Structure (SMILES) | logP
1 | O=C(O)c1ccccc1NCCO | 1.35
2 | CCOC(=O)C(C#N)=NNc1cc(Cl)c(Cl)c(Cl)c1 | 5.03
3 | CCC(=O)CC(=O)CC | 1.12
4 | CCNP(=O)(OC)Oc1cc(Cl)c(Cl)cc1Cl (stereo not given) | 3.18
5 | CCOc1cc(Cc2cnc(N)nc2N)cc(OCC)c1C(C)(C)O | 2.46
6 | CN1C(=O)CN=C(c2ccccc2F)c2cc(N)ccc21 | 1.3
7 | COc1cc(CC(C)N)c(OC)cc1Br (stereo not given) | 2.58
8 | CNc1nc(=O)cc(-c2ccc([N+](=O)[O-])o2)s1 | 0.86
9 | COC(=O)C(C#N)=NNc1cc(C#N)ccc1C#N | 2.81
10 | O=C1NC(=S)SC1=Cc1ccc([N+](=O)[O-])o1 | 0.74
11 | Clc1cccc(C2NCCS2)c1 (stereo not given) | 2.04
12 | CCC(=O)Nc1n[nH]c(NC(=O)CC)n1 | 0.07
13 | CCCCCCCC[n+]1ccccc1C.[I-] | -0.77
14 | CCCCCCNC(=O)CNC(=O)C=[N+]=[N-] | 1.51
15 | CN(C)c1ncnc2sccc12 | 1.82
16 | CC1=Nc2cc([N+](=O)[O-])c(Cl)cc2S(=O)(=O)N1 | 1.42
17 | CCCCCNc1ccc(C(=O)OCCN(C)C)cc1 | 4.14
18 | COc1ccnc(-n2nc(C)cc2OC)n1 | 1.01
19 | NC1=NC(=O)C(=Cc2ccc([N+](=O)[O-])o2)S1 | 1.09
20 | CCOC(=O)C(=Cc1ccccc1)C(=O)OCC | 3.13
21 | CCOP(=O)(OCC)Oc1ccc(SC)cc1C | 3.21
22 | Nc1ncnc2nc(-c3cccc([N+](=O)[O-])c3)[nH]c12 | 1.93
23 | COc1cc(Cc2cnc(N)nc2N)cc(OCc2ccccc2)c1OC | 2.37
24 | CC(=O)CNc1ccccc1C(N)=O | 0.61
25 | CCC(C)C(NC(C)=O)C(N)=O (stereo not given) | -0.03

Row | Structure (SMILES) | logP
26 | CSC(C)=NOC(=O)N(C)SN(C)C(=O)c1ccccc1 | 2.2
27 | CCCC(=O)N(C)SN(C)C(=O)Oc1cccc2c1OC(C)(C)C2 | 3.8
28 | COc1cc(Cc2cnc(N)nc2N)c(Cl)c(OC)c1 | 2.13
29 | CCCCCCCC[n+]1ccc(C)cc1C.[I-] | -0.57
30 | Nc1ncnc2ccccc12 | 1.28
31 | CCCC(=O)N(C)SN(C)C(=O)ON=C(C)SC | 2.2
32 | O=C(O)CCCCCCCN1C(=O)C=CC1=O | 1.99
33 | CCC[n+]1cccc2ccccc21.[Br-] | -2.52
34 | CCCC(C)n1nnc2ccccc21 (stereo not given) | 2.95
35 | O=NN(CCCl)C(=O)NC1CCC(O)CC1 (stereo not given) | 1.11
36 | COc1ccccc1C(=O)NCCCN(C)C | 1.27
37 | COCN1C(=O)CN=C(c2ccccc2Cl)c2cc(Cl)ccc21 | 3.23
38 | CCCNCC(=O)NC(=O)C=[N+]=[N-] | -0.24
39 | CCCCOn1c(=O)[nH]c(C)c(Br)c1=O | 1.24
40 | NNC(=O)c1ccc2ncccc2c1 | 0.35
41 | CS(=O)(=O)c1cccs1 | 0.38
42 | CC1=Nc2cc(Br)ccc2S(=O)(=O)N1 | 1.37
43 | CCN1C(=O)CN=C(c2ccccc2)c2cc(Cl)ccc21 | 3.21
44 | CS(=O)(=O)c1cccc(NC(N)=O)c1 | -0.12
45 | CCOc1c(OC)cc(Cc2cnc(N)nc2N)cc1OC | 1.34
46 | CCN(CCOC(C)=O)c1ccccc1 | 2.04
47 | CC(=O)OCC1=C(C(=O)O)N2C(=O)[C@@H](NC(=O)CBr)[C@H]2SC1 | -0.7
48 | Nc1ccc(Cc2cnc(N)nc2N)cc1 | 0.22
49 | CCc1ccccc1N1C(=O)CCC1=O | 0.64
50 | COc1cc(-n2[nH]c(C)cc2=O)nc(C)n1 | 0.72

Row | Structure (SMILES) | logP
51 | CSCN1C(=O)CN=C(c2ccccc2)c2cc(Cl)ccc21 | 3.32
52 | CC(=O)OCCOC(=O)c1ccccc1 | 1.85
53 | CCCCCCC1OC(=O)c2ccccc21 (stereo not given) | 3.55
54 | CN(C)c1ccc(C(N)=O)cc1 | 1.14
55 | Oc1ccc(C(c2ccc(O)cc2)c2nccs2)cc1 | 2.96
56 | C=CCOn1c(=O)[nH]c(C)c(Br)c1=O | 0.32
57 | CCCCCCCCOn1c(=O)[nH]c(C)c(Br)c1=O | 3.39
58 | COCC(O)Cn1c([N+](=O)[O-])cnc1C (stereo not given) | 0.04
59 | COP(=O)(OC)Oc1ccc([N+](=O)[O-])cc1Cl | 1.83
60 | c1cncc(CCN2CCCCC2)c1 | 1.66
61 | COc1cc(C)nn1-c1ccncn1 | 0.5
62 | COCCn1ccnc1[N+](=O)[O-] | 0.12
63 | NC1CC2CC1c1ccc(C(F)(F)F)cc12 (stereo not given) | 2.91
64 | ClC1C=CCC(Cl)C1Cl (stereo not given) | 2.84
65 | COc1ccc(Cc2cnc(N)nc2N)cc1OCc1ccccc1 | 2.44
66 | CC(=O)Oc1ccc(N=C2C=CC(=O)C=C2)cc1 | 1.43
67 | CC(=O)c1ccc(NS(=O)(=O)C(F)(F)F)cc1 | 2.83
68 | Cc1cccc2c1ncc[n+]2[O-] | 1.2
69 | CC(=O)NC1CC1c1ccccc1 (stereo not given) | 1.43
70 | COc1cc(Cc2cnc(N)nc2N)cc(OC)c1-n1cccc1 | 1.78
71 | CON(C)C(=O)Nc1cccc(OCc2ccccc2)c1 | 3.11
72 | CN(Cc1ccc(C#N)cc1)N=Nc1ccc(C(=O)O)cc1 | 3.6
73 | O=C(Nc1ccccc1)c1cc(N2CC2)c([N+](=O)[O-])cc1[N+](=O)[O-] | 2.23
74 | CCCCN(CCCC)CCS(=O)(=O)c1cc(OC)c(OC)c(OC)c1 | 3.55
75 | CN(N=O)C(=O)Oc1cccc2ccccc12 | 2.85
